{
  "source": "patent EP1611112B1",
  "about": "“ISOXAZOLE COMPOUNDS AS INHIBITORS OF HEAT SHOCK PROTEINS” (Vernalis (Cambridge) Limited, priority 2003, dated 2004)",
  "note": "Counter-ions that a name gives are not always drawn.",
  "data": [
    {"biological_target": "T1, human full-length HSP90 (Homo sapiens, UniProt P08238)", "T1 construct": "E. coli expressed human full-length HSP90 protein; made in house; host or cells: E. coli", "assay": "Fluorescence Polarisation Assay (displacement of fluorescein-labelled probe RBT0045864-FAM)", "format": "binding", "details": "Fluorescence Polarisation Assay, activity range", "from_the_text": "(§1) A Fluorescence Polarization_assay was also employed for the evaluation of some of the compounds of the Examples:\n(§2) Fluorescence polarization {also known as fluorescence anisotropy} measures the rotation of a fluorescing species in solution, where the larger molecule the more polarized the fluorescence emission.\n(§3) When the fluorophore is excited with polarized light, the emitted light is also polarized. The molecular size is proportional to the polarization of the fluorescence emission.\n(§4) Test compound is added to the assay plate, left to equilibrate and the anisotropy measured again. Any change in anisotropy is due to competitive binding of compound to HSP90, thereby releasing probe.\n(§5) Stored at room temperature. • 3) BSA (bovine serum albumen) 10 mg/ml (New England Biolabs # B9001S) • 4) 20 mM probe in 100 % DMSO stock concentration. Stored in the dark at RT. Working concentration is 200 nM diluted in AR water and stored at 4 °C.\n(§6) 1) Add 100µl 1x buffer to wells 11A and 12A (=FP BLNK) 2) Prepare assay mix - all reagents are kept on ice with a lid on the bucket as the probe is light-sensitive.\n(§7) This gives 2.5 mM {50x} stock cpd - assuming cpds 20 mM. • 4) Repeat for wells A2 to A10. Control in columns 11 and 12. • 5) Transfer 5 µl from row A to row B- not column 12. Mix well. • 6) Transfer 5 µl from row B to row C. […] Add 2 µl of 100mM standard cpd to wells B12 - H12 {is positive control } • 13)The Z' factor is calculated from zero controls and positive wells.", "units": {"IC50": "µM"}, "values": [
      {"smiles": "CCNC(=O)c1noc(-c2cc(Cl)c(O)cc2O)c1-c1ccc(OC)cc1", "note": "[Example 25, 5-(5-chloro-2,4-dihydroxyphenyl)-4-(4-methoxy-phenyl)-isoxazole-3-carboxylic acid ethylamide]", "IC50": "< 10"},
      {"smiles": "CCNC(=O)c1noc(-c2cc(Cl)c(O)cc2O)c1-c1ccc(N2CCNCC2)cc1", "note": "[Example 26]", "IC50": "< 10"},
      {"smiles": "CCNC(=O)c1noc(-c2cc(Cl)c(O)cc2O)c1-c1ccc(F)cc1", "note": "[Example 27]", "IC50": "< 10"},
      {"smiles": "CCNC(=O)c1noc(-c2cc(Cl)c(O)cc2O)c1Br", "note": "[Example 27a]", "IC50": "< 10"},
      {"smiles": "Cc1noc(-c2cc(Cl)c(O)cc2O)c1-c1cccc(CN2CCOCC2)c1", "note": "[Example 28, 4-Chloro-6-[3-methyl-4-(3-morpholin-4-ylmethyl-phenyl)-isoxazol-5-yl]-benzene-1,3-diol]", "IC50": "< 10"},
      {"smiles": "Cc1noc(-c2cc(Cl)c(O)cc2O)c1-c1cccc(CN2CCC(C(N)=O)CC2)c1", "note": "[Example 29, 1-{3-[5-(5-Chloro-2,4-dihydroxy-phenyl)-3-methyl-isoxazol-4-yl]-benzyl}-piperidine-4-carboxylic acid amide]", "IC50": "< 10"},
      {"smiles": "CC(=O)Nc1cccc(-c2c(C)noc2-c2cc(Cl)c(O)cc2O)c1", "note": "[Example 30]", "IC50": "< 10"},
      {"smiles": "CCNC(=O)c1noc(-c2cc(Cl)c(O)cc2O)c1-c1cccc(N2CCN(C)CC2)c1", "note": "[Example 31, 5-(5-Chloro-2,4-dihydroxy-phenyl)-4-[3-(4-methyl-piperazin-1-yl)-phenyl]-isoxazole-3-carboxylic acid ethylamide]", "IC50": "< 10"},
      {"smiles": "CCNC(=O)c1noc(-c2cc(Cl)c(O)cc2O)c1-c1ccc2ccccc2c1", "note": "[Example 32]", "IC50": "< 10"},
      {"smiles": "CCNC(=O)c1noc(-c2cc(Cl)c(O)cc2O)c1-c1ccc2ncccc2c1", "note": "[Example 33]", "IC50": "< 10"},
      {"smiles": "CCNC(=O)c1noc(-c2cc(Cl)c(O)cc2O)c1-c1cccnc1", "note": "[Example 34]", "IC50": "< 10"},
      {"smiles": "CCNC(=O)c1noc(-c2cc(Cl)c(O)cc2O)c1-c1cccc2ccccc12", "note": "[Example 35]", "IC50": "< 10"},
      {"smiles": "CCNC(=O)c1noc(-c2cc(Cl)c(O)cc2O)c1-c1ccc(N2CCN(C)CC2)cc1", "note": "[Example 36]", "IC50": "< 10"},
      {"smiles": "CCNC(=O)c1noc(-c2cc(Cl)c(O)cc2O)c1-c1ccc(CNCCS(C)(=O)=O)cc1", "note": "[Example 37]", "IC50": "< 10"},
      {"smiles": "CCNC(=O)c1noc(-c2cc(Cl)c(O)cc2O)c1-c1ccc(CN2CCS(=O)(=O)CC2)cc1", "note": "[Example 38]", "IC50": "< 10"},
      {"smiles": "CCNCc1noc(-c2cc(Cl)c(O)cc2O)c1-c1ccc(OC)cc1", "note": "[Example 40]", "IC50": "< 10"},
      {"smiles": "CCNC(=O)c1noc(-c2cc(Cl)c(O)cc2O)c1-c1ccc(CN2CCOCC2)cc1", "note": "[Example 41, 5-(5-Chloro-2,4-dihydroxy-phenyl)-4-(4-morpholin-4-ylmethyl-phenyl)-isoxazole-3-carboxylic acid ethylamide]", "IC50": "< 10"},
      {"smiles": "CCNC(=O)c1noc(-c2cc(Cl)c(O)cc2O)c1-c1ccc(CNCc2ccoc2)cc1", "note": "[Example 41a]", "IC50": "< 10"},
      {"smiles": "CCNC(=O)c1noc(-c2cc(CC)c(O)cc2O)c1-c1ccc(CN(CC)CC)cc1", "note": "[Example 41b]", "IC50": "< 10"},
      {"smiles": "CNC(=O)c1noc(-c2cc(Cl)c(O)cc2O)c1-c1ccc(CN2CCCCC2)cc1", "note": "[Example 41c]", "IC50": "< 10"},
      {"smiles": "CCNC(=O)c1noc(-c2cc(Cl)c(O)cc2O)c1-c1ccc(F)cc1F", "note": "[Example 41e]", "IC50": "< 10"},
      {"smiles": "CCNC(=O)c1noc(-c2cc(Cl)c(O)cc2O)c1-c1ccc(CN2CCOCC2)c(F)c1", "note": "[Example 41g]", "IC50": "< 10"},
      {"smiles": "NC(=O)c1noc(-c2cc(Cl)c(O)cc2O)c1-c1ccc(CN2CCCCC2)cc1", "note": "[Example 41h]", "IC50": "< 10"},
      {"smiles": "CCNC(=O)c1noc(-c2cc(Cl)c(O)cc2O)c1-c1ccc(CN2CCCCC2)cc1C", "note": "[Example 41i]", "IC50": "< 10"},
      {"smiles": "CCNC(=O)c1noc(-c2cc(Cl)c(O)cc2O)c1-c1ccc(CN2CCOCC2)cc1C", "note": "[Example 41j]", "IC50": "< 10"},
      {"smiles": "CCNC(=O)c1noc(-c2cc(Cl)c(O)cc2O)c1-c1ccccc1CN1CCOCC1", "note": "[Example 41m]", "IC50": "< 10"},
      {"smiles": "CCNC(=O)c1noc(-c2cc(Cl)c(O)cc2O)c1-c1ccc(CO)cc1", "note": "[Example 41n]", "IC50": "< 10"},
      {"smiles": "CC(C)NC(=O)c1noc(-c2cc(Cl)c(O)cc2O)c1-c1ccc(CN2CCCCC2)cc1", "note": "[Example 41p]", "IC50": "< 10"},
      {"smiles": "CCNC(=O)c1noc(-c2cc(Cl)c(O)cc2O)c1-c1ccc(OCCN(CC)CC)cc1", "note": "[Example 41q]", "IC50": "< 10"},
      {"smiles": "CCNC(=O)c1noc(-c2cc(Cl)c(O)cc2O)c1-c1ccc(CN2CCCCC2)c2ccccc12", "note": "[Example 41r]", "IC50": "< 10"},
      {"smiles": "CCNC(=O)c1noc(-c2cc(Cl)c(O)cc2O)c1-c1ccccc1CN1CCN(C)CC1", "note": "[Example 41s]", "IC50": "< 10"},
      {"smiles": "CCNC(=O)c1noc(-c2cc(Cl)c(O)cc2O)c1-c1ccc(C(C)N2CCOCC2)cc1", "note": "(stereo not drawn) [Example 42]", "IC50": "< 10"},
      {"smiles": "CCNC(=O)c1noc(-c2cc(Cl)c(O)cc2O)c1-c1cccc(C(C)N2CCOCC2)c1", "note": "(stereo not drawn) [Example 44]", "IC50": "< 10"},
      {"smiles": "CCNC(=O)c1noc(-c2cc(Cl)c(O)cc2O)c1-c1cccc(CN2CCOCC2)c1", "note": "[Example 45]", "IC50": "< 10"},
      {"smiles": "CCNC(=O)c1noc(-c2cc(Cl)c(O)cc2O)c1-c1ccc(CN2CCN(C)CC2)cc1", "note": "[Example 47]", "IC50": "< 10"},
      {"smiles": "CCNC(=O)c1noc(-c2cc(Cl)c(O)cc2O)c1-c1cccc(CN2CCN(C)CC2)c1", "note": "[Example 48]", "IC50": "< 10"},
      {"smiles": "CCNC(=O)c1noc(-c2cc(Cl)c(O)cc2O)c1-c1ccc(CN(CC)CC)cc1", "note": "[Example 49]", "IC50": "< 10"},
      {"smiles": "CCNC(=O)c1noc(-c2cc(Cl)c(O)cc2O)c1-c1ccc(CN2CCC(CO)CC2)cc1", "note": "[Example 50]", "IC50": "< 10"},
      {"smiles": "CCNC(=O)c1noc(-c2cc(Cl)c(O)cc2O)c1-c1ccc(CN2CCC(CCO)CC2)cc1", "note": "[Example 51]", "IC50": "< 10"},
      {"smiles": "CCNC(=O)c1noc(-c2cc(Cl)c(O)cc2O)c1-c1ccc(CN2CCC(O)CC2)cc1", "note": "[Example 53]", "IC50": "< 10"},
      {"smiles": "CCNC(=O)c1noc(-c2cc(CC)c(O)cc2O)c1-c1ccc(CN2CCOCC2)cc1", "note": "[Example 55]", "IC50": "< 10"},
      {"smiles": "CCNC(=O)c1noc(-c2cc(CC)c(O)cc2O)c1-c1ccc(CN2CCCCC2)cc1", "note": "[Example 56]", "IC50": "< 10"},
      {"smiles": "CCNC(=O)c1noc(-c2cc(CC)c(O)cc2O)c1-c1ccc(CN2CCN(C)CC2)cc1", "note": "[Example 57]", "IC50": "< 10"},
      {"smiles": "CCNC(=O)c1noc(-c2cc(Cl)c(O)cc2O)c1-c1ccc(CNCc2cccnc2)cc1", "note": "[Example 58]", "IC50": "< 10"},
      {"smiles": "CCNC(=O)c1noc(-c2cc(Cl)c(O)cc2O)c1-c1ccc(CN(C)C)cc1", "note": "[Example 59]", "IC50": "< 10"},
      {"smiles": "CCNC(=O)c1noc(-c2cc(Cl)c(O)cc2O)c1-c1cccc(CN2CCN(C(C)=O)CC2)c1", "note": "[Example 62]", "IC50": "< 10"},
      {"smiles": "CCNC(=O)c1noc(-c2cc(Cl)c(O)cc2O)c1-c1ccc(F)c(CN2CCN(C(C)=O)CC2)c1", "note": "[Example 63]", "IC50": "< 10"},
      {"smiles": "CCNC(=O)c1noc(-c2cc(Cl)c(O)cc2O)c1-c1ccc(F)c(CN2CCOCC2)c1", "note": "[Example 64]", "IC50": "< 10"},
      {"smiles": "CCNC(=O)c1noc(-c2cc(CCc3ccccc3)c(O)cc2O)c1-c1ccc(CN2CCOCC2)cc1", "note": "[Example 65, 5-(2,4-dihydroxy-5-phenethyl-phenyl)-4-(4-morpholin-4-ylmethylphenyl)-isoxazole-3-carboxylic acid ethylamide hydrochloride]", "IC50": "< 10"},
      {"smiles": "CCNC(=O)c1noc(-c2cc(-c3ccccc3)c(O)cc2O)c1-c1ccc(F)cc1", "note": "[Example 67]", "IC50": "< 10"}
    ]},
    {"biological_target": "T1, human full-length HSP90", "assay": "Fluorescence Polarisation Assay (displacement of fluorescein-labelled probe RBT0045864-FAM)", "format": "binding", "details": "Fluorescence Polarisation Assay, key in footnote of the table", "from_the_text": "as §1, §2, §3, §4, §5, §6, §7", "units": {"IC50": "µM"}, "values": [
      {"smiles": "COc1ccc(-c2c(C)noc2-c2cc(C#N)c(O)cc2O)cc1", "note": "[Example 12b]", "IC50": "< 10"}
    ]}
  ]
}
